Our source for the IC50 and inhibition values is patent publication US12030877B2, “Prostaglandin E synthase inhibitors and methods for utilizing the same” (University of Kentucky Research Foundation, priority 2016, dated 2024).

For orientation: IC50 means the point on the concentration scale where inhibition reaches its midpoint. For orientation: inhibition means the drop in the measured response relative to a control, in per cent.

In the first assay the target is T1, mPGES-1 (Homo sapiens, UniProt O14684).
T1 sequence (O14684 1-152): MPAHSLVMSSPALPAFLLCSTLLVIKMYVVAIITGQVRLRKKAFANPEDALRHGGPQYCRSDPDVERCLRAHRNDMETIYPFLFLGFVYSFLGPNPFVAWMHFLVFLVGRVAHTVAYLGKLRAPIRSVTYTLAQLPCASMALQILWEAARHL
Briefly: mPGES-1 enzyme activity assay (PGE2 enzyme immunoassay), human enzyme. The format is biochemical. On the set-up: made in house; host or cells: FreeStyle 293-F cells, crude microsomal preparation. As to conditions: IC50 against mPGES-1, Human enzyme, recombinant microsomal enzyme; means ± SD, triplicate. The procedure:
Studies were conducted to characterize the inhibitory activity against recombinant mPGES-1 of the compounds synthesized in accordance with Examples 1-4, and disclosed herein.
Briefly, FreeStyle 293-F cells were cultured following manufacturer's manual in FreeStyle 293 expression medium on orbit rotate shaker in 8% CO2 incubator at 37° C. Cells were transfected with 1.5 μg/mL of mPGES-1/pcDNA3 construct using FreeStyle Max reagent at a cell density of 1×10^6 for 2 days. Transfected cells were collected, washed, and sonicated in TSES buffer (15 mM Tris-HCl, pH 8.0 plus 0.25 M sucrose, 0.1 mM EDTA and 1 mM DTT) on ice. The broken cells were first centrifuged at 12,500×g for 10 min. The supernatant was further centrifuged at 105,000×g for 1 hr at 4° C. The pellet was washed and homogenized in PBS buffer. The crude microsomal mPGES-1 preparation was aliquoted and stored at −80° C. The crude protein concentration was 8 mg/mL.
The enzyme activity assays were performed on ice in 1.5 ml microfuge tubes by using the expressed mPGES-1. The reaction mixture contained: 0.2 M Na2HPO4/NaH2PO4, pH 7.2, 10 μL; 0.1 M GSH, 2.5 μL; diluted microsomal enzyme (80 μg/mL), 1 μL; PGH2 (0.31 mM in DMF), 5 μL; 1 μL inhibitor; and H2O in a final reaction volume of 100 μL. PGH2 was stored in dry ice and used to initiate the reaction.
Compounds were incubated with the enzyme for 15 min at room temperature before the addition of cold PGH2 (1 μM final) to initiate the enzyme reaction. After 30 s, 10 μL of SnCl2 (40 mg/mL) in ethanol was added to stop the reaction. The nonenzymatic conversion of PGH2 to PGE2 was performed in the same buffer devoid of enzyme. The reaction mixture was placed on ice until PGE2 production was determined by the PGE2 enzyme immunoassay as described earlier. IC50 values of the inhibitors were calculated by using the GraphPad Prism 4.0 program. The results are set forth in the tables provided in Examples 7-10.
Turning to `O=C1NC(=O)C(=Cc2ccc(OCCCCC3CCCCC3)c([N+](=O)[O-])c2)C(=O)N1` [Compound I-23], the IC50 worked out at 53 ± 14 nM.

For `O=C1NC(=O)C(=Cc2ccc(OCCCCC3CCCCC3)c(Br)c2)C(=O)N1` [Compound I-22], the half-maximal inhibitory concentration (IC50) came to 20 ± 4 nM. Still for that read-out and setting: the result for `O=C1NC(=O)C(=Cc2ccc(OCCCC3CCCCC3)c(Br)c2)C(=O)N1` [Compound I-31] reads 112 ± 13 nM. Still for that read-out and setting: with `O=C1NC(=O)C(=Cc2ccc(OCCCCC3CCCCC3)c(Br)c2)C(=O)N1` [Compound I-03] the figure was 45 ± 8 nM; with `O=C1NC(=O)C(=Cc2ccc(OCCCC3CCCCC3)c(Cl)c2)C(=O)N1` [Compound I-30], 78 ± 13 nM.

As to `O=C1NC(=O)C(=Cc2ccc(OCCCC3CCCCC3)c(Cl)c2)C(=O)N1` [Compound I-24], the IC50 worked out at 110 ± 21 nM. On the same count and under the same terms, with `O=C1NC(=O)C(=Cc2ccc(OCCCC3CCCCC3)c(Br)c2)C(=O)N1` [Compound I-25] the figure was 104 ± 25 nM; with `O=C1NC(=O)C(=Cc2ccc(OCCCCC3CCCCC3)c([N+](=O)[O-])c2)C(=O)N1` [Compound I-08], 67 ± 20 nM.

The assay is the same for the next values; noted with them: compound at a concentration of 10 μM; read-out: % inhibition of the compound against mPGES-1, Human enzyme.
Consider `CCCCCCOc1ccc(-c2nn(-c3ccc(Cl)cc3)cc2/C=C(/C#N)C(=O)OCC)cc1` [VII-04], for which the inhibition at 10 µM was found to be 37%. With `CCCCCCCCCCOc1ccc(-c2nn(-c3ccc(Cl)cc3)cc2C=C(C#N)C#N)cc1` [VII-28], the inhibition at 10 µM came to 47%. Turning to `CCCCCCCCCCOc1ccc(-c2nn(-c3ccccc3)cc2C=C2C(=O)N(C)C(=O)N(C)C2=O)cc1` [VI-23], the inhibition at 10 µM was found to be 0%.

Regarding `CCCCCCCCCCOc1ccc(-c2nn(-c3ccc(Cl)cc3)cc2C=C2C(=O)N(C)C(=O)N(C)C2=O)cc1` [VI-24], the inhibition at 10 µM is 0%. Still for that read-out and setting: with `CCCCCCCCOc1ccc(-c2nn(-c3ccc(Cl)cc3)cc2C=C(C#N)C#N)cc1` [VII-26] the figure was 52%; with `CCCCOc1ccc(-c2nn(-c3ccc(Cl)cc3)cc2C=C(C#N)C#N)cc1` [VII-23], 77%. On to `CCCCCCCCOc1ccc(-c2nn(-c3ccccc3)cc2C=C2C(=O)N(C)C(=O)N(C)C2=O)cc1` [VI-21], for which the inhibition at 10 µM is 16%. In the case of `CCCCCCCCCCOc1ccc(-c2nn(-c3ccccc3)cc2C=C(C#N)C#N)cc1` [VII-27], the inhibition at 10 µM came out at 49%. Regarding `CCCCOc1ccc(-c2nn(-c3ccccc3)cc2C=C(C#N)C#N)cc1` [VII-22], the inhibition at 10 µM amounted to 54%.

Regarding `CCOC(=O)/C(C#N)=C\c1cn(-c2ccc(Cl)cc2)nc1-c1ccc(OCC)cc1` [VII-03], the inhibition at 10 µM is 24%.

Take `CCCCOc1ccc(-c2nn(-c3ccccc3)cc2C=C2C(=O)N(C)C(=O)N(C)C2=O)cc1` [VI-19]: the inhibition at 10 µM was 30%.

As for `CCCCCCCCOc1ccc(-c2nn(-c3ccccc3)cc2C=C(C#N)C#N)cc1` [VII-25], the inhibition at 10 µM worked out at 55%. On the same count and under the same terms, with `CCCCOc1ccc(-c2nn(-c3ccc(Cl)cc3)cc2C=C2C(=O)N(C)C(=O)N(C)C2=O)cc1` [VI-20] the figure was 29%; with `CCCCCCCCOc1ccc(-c2nn(-c3ccc(Cl)cc3)cc2C=C2C(=O)N(C)C(=O)N(C)C2=O)cc1` [VI-22], 6.8%.

Still in this assay, the particulars now being: recombinant microsomal enzyme; means ± SD, triplicate; read-out: IC50 against mPGES-1, Human enzyme.
As for `CCCCCCOc1ccc(/C=C(\C#N)C(=O)OCC)cc1OC` [Compound V-23], the half-inhibitory concentration (IC50) stood at 1450 ± 192 nM.

For `CCCCCCCCCOc1ccc(/C=C(\C#N)C(=O)OCC)cc1OC` [Compound V-29], the IC50 turned out to be 2880 ± 687 nM. Take `CCCCOc1ccc(/C=C(\C#N)C(=O)OCC)cc1OC` [Compound V-21]: the IC50 was determined as 5630 ± 987 nM. Same read-out and setting: the result for `CCCCCCCOc1ccc(/C=C(\C#N)C(=O)OCC)cc1` [Compound V-09] reads 3520 ± 471 nM; that for `CCCCCCCOc1ccc(/C=C(\C#N)C(=O)OCC)cc1[N+](=O)[O-]` [Compound V-02], 4820 ± 511 nM. On the same count and under the same terms, with `CCCCCCCOc1c(Br)cc(/C=C(\C#N)C(=O)OCC)cc1OC` [Compound V-14] the figure was 1010 ± 262 nM. The same measure, in the same setting: with `CCCCCCCCOc1ccc(/C=C(\C#N)C(=O)OCC)cc1[N+](=O)[O-]` [Compound V-03] the figure was 4750 ± 489 nM; with `CCCCCCCOc1ccc(/C=C(\C#N)C(N)=O)cc1OC` [Compound V-33], 2210 ± 450 nM; with `CCCCCCCOc1ccc(/C=C(\C#N)C(=O)O)cc1OC` [Compound V-34], 531 ± 116 nM. As to `CCCCCCCCCCOc1ccc(/C=C(\C#N)C(N)=O)cc1OC` [Compound V-28], the IC50 was 4370 ± 915 nM. As to `CCCCOc1ccc(/C=C(\C#N)C(=O)O)cc1OC` [Compound V-36], the concentration for half-maximal inhibition (IC50) came to 541 ± 82 nM. On the same count and under the same terms, with `CCCCCCCCOc1c(Br)cc(/C=C(\C#N)C(=O)OCC)cc1OC` [Compound V-17] the figure was 1870 ± 350 nM. On the same count and under the same terms, with `CCCCOc1ccc(/C=C(\C#N)C(N)=O)cc1OC` [Compound V-37] the figure was 5410 ± 818 nM. On the same count and under the same terms, with `CCOC(=O)/C(C#N)=C/c1ccc(OCC2CCCCC2)c(OC)c1` [Compound V-38] the figure was 10800 ± 1040 nM; with `CCCCCCCOc1ccc(/C=C(\C#N)C(N)=O)cc1` [Compound V-11], 376 ± 31 nM; with `O=C1NC(=O)/C(=C/c2cn(-c3ccccc3)nc2-c2ccccc2)S1` [VII-07], 4930 ± 1160 nM. For `CCCCCOc1ccc(/C=C(\C#N)C(=O)OCC)cc1OC` [Compound V-41], the IC50 worked out at 4140 ± 858 nM. Same read-out and setting: with `CCCCCCCCCOc1ccc(/C=C(\C#N)C(=O)O)cc1OC` [Compound V-31] the figure was 356 ± 123 nM. Same read-out and setting: the result for `CCCCCCCCCCCCCCCCCCOc1c(Br)cc(/C=C(\C#N)C(=O)OCC)cc1OC` [Compound V-19] reads 2270 ± 350 nM; that for `CCCCCOc1ccc(/C=C(\C#N)C(=O)O)cc1OC` [Compound V-44], 456 ± 42 nM.

Turning to `CCOc1ccc(-c2nn(-c3ccc(Cl)cc3)cc2/C=C2\SC(=O)NC2=O)cc1` [VII-05], the half-inhibitory concentration (IC50) was 1590 ± 557 nM. Same read-out and setting: with `COc1cc(/C=C(\C#N)C(N)=O)ccc1OCC1CCCCC1` [Compound V-40] the figure was 1460 ± 119 nM. Same read-out and setting: with `CCCCCCOc1ccc(/C=C(\C#N)C(=O)O)cc1OC` [Compound V-25] the figure was 242 ± 30 nM; with `CCCCCCOc1ccc(-c2nn(-c3ccc(Cl)cc3)cc2/C=C2\SC(=O)NC2=O)cc1` [VII-06], 1390 ± 303 nM.

With `CCCCCOc1ccc(C=C(C#N)C#N)cc1OC` [Compound V-42], the 50% inhibitory concentration (IC50) was found to be 439 ± 104 nM.

Regarding `CCCCCCOc1ccc(C=C(C#N)C#N)cc1OC` [Compound V-24], the IC50 worked out at 294 ± 60 nM. Still for that read-out and setting: with `CCCCCCCCCCOc1ccc(/C=C(\C#N)C(=O)OCC)cc1OC` [Compound V-26] the figure was 905 ± 177 nM; with `CCCCCOc1ccc(/C=C(\C#N)C(=O)OCC)cc1` [Compound V-07], 6220 ± 502 nM.

Regarding `COc1cc(C=C(C#N)C#N)ccc1OCC1CCCCC1` [Compound V-39], the IC50 turned out to be 1450 ± 152 nM. On the same count and under the same terms, with `CCCCCCCOc1c(Br)cc(/C=C(\C#N)C(N)=O)cc1OC` [Compound V-16] the figure was 1300 ± 232 nM; with `CCCCCCCOc1ccc(/C=C(\C#N)C(=O)OCC)cc1OC` [Compound V-32], 4280 ± 1400 nM; with `CCCCCOc1ccc(/C=C/[N+](=O)[O-])cc1OC` [Compound V-43], 2770 ± 577 nM. `CCCCCCOc1ccc(-c2nn(-c3ccc(Cl)cc3)cc2/C=C2\SC(=S)NC2=O)cc1` [VII-09]: the IC50 came to 1730 ± 666 nM. The same measure, in the same setting: the result for `CCCCCCCCCOc1ccc(/C=C(\C#N)C(N)=O)cc1OC` [Compound V-30] reads 1100 ± 212 nM; that for `CCCCCCOc1ccc(/C=C(\C#N)C(=O)OCC)cc1[N+](=O)[O-]` [Compound V-01], 8740 ± 1170 nM.
